Like-named read-outs stand apart in the source and are kept apart here.
Assays:
[1] = molecular target: T1, turkey β4C-adrenoceptor (tβ4C) (Meleagris gallopavo, UniProt P43141); assay: cell-based; format: cell-based; conditions: for % isop max: CRE-SPAP, % of 10 µM isoprenaline maximum
T1 construct: expressed in transfected cells

Human β3-adrenoceptor = conditions: Human β3, given for comparison; ref 25 and 30; cited from earlier work
[2] = molecular target: T1, turkey β4C-adrenoceptor (tβ4C); assay: cell-based; format: binding
[3] = molecular target: T2, turkey β3C-adrenoceptor (tβ3C) (Meleagris gallopavo, UniProt A0A803YLI8); assay: 3H-CGP12177 whole cell binding, CHO tβ3C cells
[4] = molecular target: T2, turkey β3C-adrenoceptor (tβ3C); assay: CRE-SPAP production, CHO tβ3C cells; format: cell-based; conditions: for Emax: read-out: % isop max
Human β2-adrenoceptor = molecular target: Human β2-adrenoceptor; design: method as in PMID 15655528, PMID 20590599; conditions: Human β2, given for comparison; ref 25 and 30; cited from earlier work
Human β1-adrenoceptor = molecular target: Human β1-adrenoceptor; design: method as in PMID 15655528, PMID 20590599; conditions: Human β1, given for comparison; ref 25 and 30; cited from earlier work
[5] = molecular target: T1, turkey β4C-adrenoceptor (tβ4C); assay: 3H-cAMP accumulation, CHO tβ4C cells; format: cell-based; conditions: for % isop max: 3H-cAMP, overall response as % of 10 µM isoprenaline; for % site 1: % of response occurring via site 1, tβ4C
[6] = tested on: parent CHO CRE-SPAP cells; assay: agonist response in parent CHO CRE-SPAP cells; format: cell-based
Text: The second piece of pharmacological evidence for more than one conformation is the concentrations of antagonists required to inhibit the CGP12177-stimulatory response. […] This is similar to observations at the β1-adrenoceptor in rodents and mammals [6]–[7] [9] [11]. […] There was no response to any ligands, including CGP12177 in the parent CHO CRE-SPAP cells and thus the CGP12177 agonist response was not occurring at a different receptor natively expressed in the cells.

[7] = molecular target: T2, turkey β3C-adrenoceptor (tβ3C); assay: cell-based
[8] = molecular target: T2, turkey β3C-adrenoceptor (tβ3C)
parent CHO cells [9] = assay: 3H-cAMP accumulation, parent CHO cells; conditions: parent CHO cells without transfected receptor
parent CHO cells [10] = assay: 3H-CGP12177 binding, parent CHO cells; conditions: parent CHO cells without transfected receptor
Description: Cells were grown to confluence in white-sided tissue culture treated 96-well view plates. ^3H-CGP12177 whole cell binding was performed as previously described. […] For competition binding, the media was removed from each well, 100 µl of serum-free media containing the competing ligand at twice the final required concentration was added to each well followed immediately by a 100 µl of a fixed concentration of ^3H-CGP12177 (1∶2 dilution in well, final well concentrations of 1.24 nM to 12.10 nM). The cells were incubated for 2 hours at 37°C, 5% CO2 humidified atmosphere. For all plates, the cells were washed twice by the addition and removal of 200 µl 4°C phosphate buffered saline. 100 µl Microscint 20 was added to each well, a white sticky base applied to the underside and a sealant top applied to the top of the plate. The plates were left at room temperature overnight in the dark and the plates counted on a Topcount at 21°C for 2 minutes per well.

[11] = CRE-SPAP production, CHO tβ4C cells, read-out: Log EC50 (converted)
[12] = competition with 3H-CGP12177, whole cells, CHO tβ4C, given as log KD, mean ± s.e.m., read-out: Log KD (converted)
[13] = competition with 3H-CGP12177, whole cells, CHO tβ3C, given as log KD, mean ± s.e.m., read-out: Log KD (converted)

T2 sequence (A0A803YLI8 entry or part of it): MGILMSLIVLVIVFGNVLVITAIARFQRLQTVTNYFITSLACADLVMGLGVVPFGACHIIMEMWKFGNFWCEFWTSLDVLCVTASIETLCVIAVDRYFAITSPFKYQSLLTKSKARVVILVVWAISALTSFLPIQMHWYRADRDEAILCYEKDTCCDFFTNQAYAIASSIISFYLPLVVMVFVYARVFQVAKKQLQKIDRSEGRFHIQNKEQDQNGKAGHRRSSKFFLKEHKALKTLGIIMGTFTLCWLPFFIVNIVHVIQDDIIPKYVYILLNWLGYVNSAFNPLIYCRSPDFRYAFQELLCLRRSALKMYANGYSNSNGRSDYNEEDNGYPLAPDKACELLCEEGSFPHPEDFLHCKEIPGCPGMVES
T1 sequence (P43141 whole entry): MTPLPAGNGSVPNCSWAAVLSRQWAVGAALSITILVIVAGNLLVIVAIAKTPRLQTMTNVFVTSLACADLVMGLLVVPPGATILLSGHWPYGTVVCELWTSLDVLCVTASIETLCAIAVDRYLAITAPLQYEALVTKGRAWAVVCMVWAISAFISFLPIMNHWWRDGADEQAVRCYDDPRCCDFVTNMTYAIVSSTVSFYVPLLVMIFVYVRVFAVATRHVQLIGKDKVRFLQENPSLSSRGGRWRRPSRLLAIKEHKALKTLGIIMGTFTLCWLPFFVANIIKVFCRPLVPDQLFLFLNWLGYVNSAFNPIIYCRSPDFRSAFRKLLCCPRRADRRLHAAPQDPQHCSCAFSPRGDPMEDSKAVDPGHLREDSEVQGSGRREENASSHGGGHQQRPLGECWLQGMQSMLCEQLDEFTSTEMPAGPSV

Compound | % isop max ([1]; CHO tβ4C cells) | Log KD (Human β3-adrenoceptor) | Kd [2, 12] | Kd [3] | EC50 [4] | Emax [4] | Log KD (Human β2-adrenoceptor) | Log KD (Human β1-adrenoceptor) | other results
CNC[C@H](O)c1ccc(O)c(O)c1 [Adrenaline] | 99.6±2.7% | −4.70 | 1700 nM | 1550 nM | 63.1 nM | 106 ± 2.7% | −6.13 | −5.15 | EC50 [1, 11]: 191 nM
C[C@H](Cc1ccc(OCC(=O)O)cc1)NC[C@H](O)c1cccc(Cl)c1 [BRL37344] | 97.1±3.0% | −6.45 | – | – | – | – | −6.51 | −5.19 | Log EC50 ([1]; CRE-SPAP production, CHO tβ4C cells): −7.15±0.07; Log KD ([2]; competition with 3H-CGP12177, whole cells, CHO tβ4C, given as log KD, mean ± s.e.m.): −5.89±0.10; Log KD ([3]; competition with 3H-CGP12177, whole cells, CHO tβ3C, given as log KD, mean ± s.e.m.): −6.28±0.06; Log EC50 ([4]; CRE-SPAP production, CHO tβ3C cells): −7.67±0.04; % isop max ([4]; CRE-SPAP, % of 10 µM isoprenaline maximum, CHO tβ3C cells): 88.5±4.2%
CC(C)(C)NCC(O)COc1cccc2[nH]c(=O)[nH]c12 (stereo not shown) [CGP12177] | 53.4±2.2% | – | – | – | – | – | – | – | % isop max ([5]; tβ4C): 17.4±0.7%; % site 1 [5]: 41.3±7.2%; agonist response [6]: no response
CC(C)(C)NCC(O)c1cc(Cl)c(N)c(Cl)c1 (stereo not shown) [Clenbuterol] | 97.2±1.9% | −5.35 | – | 41.7 nM | 0.525 nM | 97.8 ± 4.4% | −7.90 | −6.62 | EC50 [1]: 40.7 nM; Kd [2]: 363 nM
CC(CCc1ccc(O)cc1)NCCc1ccc(O)c(O)c1 (stereo not shown) [Dobutamine] | 110.4±2.4% | −5.09 | 1000 nM | – | – | 101 ± 3.7% | −5.84 | −5.23 | EC50 [1, 11]: 158 nM; Kd [3, 13]: 2690 nM; EC50 ([4]; CRE-SPAP production, CHO tβ3C cells, read-out: Log EC50 (converted)): 427 nM
CC(Cc1ccc(O)cc1)NCC(O)c1cc(O)cc(O)c1 (stereo not shown) [Fenoterol] | – | −5.39 | – | 204 nM | 0.832 nM | – | −7.03 | −5.04 | EC50 [1]: 8.51 nM; Kd [2]: 603 nM
CC(C)(C)NCC(O)COc1cccc2c1CC(O)C(O)C2 (stereo not shown) [Nadolol] | – | −6.18 | 18.2 nM | – | – | – | −8.60 | −7.23 | Kd [3, 13]: 11.2 nM
NC[C@H](O)c1ccc(O)c(O)c1 [Noradrenaline] | 102.3±2.5% | −5.53 | 501 nM | 11500 nM | 417 nM | 102 ± 3% | −5.41 | −5.74 | EC50 [1, 11]: 81.3 nM
CC(C)(C)NC[C@H](O)COc1cccc2[nH]c(C#N)cc12 [S-Cyanopindolol] | – | −8.36 | – | 0.00427 nM | – | – | – | – | EC50 [7]: 0.0251 nM; Emax ([7]; read-out: % isop max): 4.6 ± 0.7%; shape of agonist concentration response ([8]; 3H-cAMP accumulation, tβ3C): one-component response; Log EC502 ([8]; 3H-cAMP accumulation, tβ3C, one-component response (same value as EC501)): −10.60±0.13; % site 1 ([8]; % of response occurring via site 1, tβ3C): 100%; shape of agonist concentration response ([5]; 3H-cAMP accumulation, tβ4C): two component response; % isop max ([5]; tβ4C): 16.4±2.7%; % site 1 [5]: 44.4±2.0%
O=C(O)Cc1ccc(OCCNC[C@H](O)c2ccccc2)cc1 [ZD2079] | – | −4.59 | > 100000 nM | – | – | – | >−4 | −4.21 | Kd [3, 13]: > 100000 nM
C=C[C@@]1(C)CC(=O)[C@]2(O)[C@@]3(C)[C@@H](O)CCC(C)(C)[C@@H]3[C@H](O)[C@H](OC(C)=O)[C@@]2(C)O1 [forskolin] | – | – | – | – | – | – | – | – | 3H-cAMP accumulation response (parent CHO cells [9]): 21.5±2.2 fold over basal
CC(C)(Cc1ccccc1)NCC(O)c1ccc(O)c(NS(C)(=O)=O)c1 (stereo not shown) [zinterol] | – | −6.27 | 158 nM | 24 nM | – | – | −8.04 | −5.96 | –
^3H-CGP12177 | – | – | – | – | – | – | – | – | Kd ([2]; read-out: KD of 3H-CGP12177, saturation binding, stable CHO tβ4C cell line): 0.58 ± 0.06 nM; Kd ([3]; read-out: KD of 3H-CGP12177, saturation binding, stable CHO tβ3C cell line): 0.29 ± 0.02 nM; specific binding of 3H-CGP12177 (parent CHO cells [10]): no specific binding

Reference: publication PMC2994877, “A Full Pharmacological Analysis of the Three Turkey β-Adrenoceptors and Comparison with the Human β-Adrenoceptors” (PLoS ONE, 2010)
